Where two headings read alike, the source gives them in different places.
Tests used:
HCT-116 colon carcinoma = assay: Inhibition of in vitro cell proliferation (HCT116); type: cell-based, human; conditions: Homo sapiens, HCT-116, 14C-thymidine incorporation;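 note: cells exposed to compound for 24 h, then 14C-thymidine added for a further 24 h and its uptake into DNA counted by scintillation, DMSO-only wells as control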
HER2 cytoplasmic domain = target: T1, HER2 cytoplasmic domain (Homo sapiens, UniProt P04626); assay: HER2 Kinase Screening Assay; type: biochemical; conditions: > means no observed 50% inhibition at the indicated test concentration; ~ means approximately 50% inhibition at that concentration
T1 construct: polyhistidine (N)
T1 sequence (P04626 676-1255 limits assumed): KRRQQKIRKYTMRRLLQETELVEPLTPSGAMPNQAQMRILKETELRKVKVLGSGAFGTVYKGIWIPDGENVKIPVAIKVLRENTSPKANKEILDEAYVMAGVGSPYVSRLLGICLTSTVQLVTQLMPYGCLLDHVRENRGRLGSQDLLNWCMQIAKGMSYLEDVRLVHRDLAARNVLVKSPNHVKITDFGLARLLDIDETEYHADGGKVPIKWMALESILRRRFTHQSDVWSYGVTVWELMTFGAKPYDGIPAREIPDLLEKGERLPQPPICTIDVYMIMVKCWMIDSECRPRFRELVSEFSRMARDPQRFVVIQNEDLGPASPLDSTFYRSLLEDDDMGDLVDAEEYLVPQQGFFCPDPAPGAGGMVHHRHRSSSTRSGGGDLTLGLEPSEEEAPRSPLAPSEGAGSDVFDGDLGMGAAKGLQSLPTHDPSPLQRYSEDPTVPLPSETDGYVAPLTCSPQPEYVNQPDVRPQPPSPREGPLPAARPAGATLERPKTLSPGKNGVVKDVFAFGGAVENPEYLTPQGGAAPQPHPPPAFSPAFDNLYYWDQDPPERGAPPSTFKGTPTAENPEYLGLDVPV
Description: (§1) A kinase reaction mixture was prepared containing 50 mM Tris-HCl pH=8, 10 mM MgCl2, 0.1 mM Na3PO4, 1 mM DTT, 10 μM ATP, 0.025 μM biotinylated histone-H1 peptide substrate and 0.2 μCuries per well ^33P-γ-ATP (2000-3000 Ci/mmol). 70 μL of the kinase reaction mixture was dispensed into the well of a streptavidin coated FlashPlate™ (Cat. # SMP103, NEN, Boston, Mass.). Then 1 μL of test compound stock in 100% DMSO was added to the wells resulting in a final concentration of 1% DMSO in the reaction with a 100 μL final reaction volume.
(§2) The CDK1:Cyclin-B protein was diluted in 50 mM Tris-HCl pH=8.0, 0.1% BSA at a concentration of 1 ng per μL and 30 μL (30 ng enzyme per test well) was added to each well to initiate the reaction. The reaction was incubated for one hour at 30° C. At the end of the 1 hour incubation, the reaction was terminated by aspirating the mixture from the plate and washing the wells twice with PBS containing 100 mM EDTA. The histone-H1 biotinylated peptide substrate became immobilized on the Flashplate™ and the incorporation of ^33P-γ-ATP was measured by reading the plate on a scintillation counter. Inhibition of the enzymatic activity of CDK1 was measured by observing a reduced amount of ^33P-γ-ATP incorporated into the immobilized peptide.
The HER2 kinase assay was carried out using the CDK kinase assay procedure except that the enzyme was replaced with a HER2 construct containing a polyhistidine tag at the N-terminus followed by 24 additional amino acids and the HER2 cytoplasmic domain beginning at amino acid 676 (Accession #M11730) to the end.

[1] = target: T2, rat VEGF-R2 kinase domain (Rattus norvegicus, UniProt O08775); assay: VEGF-R2 Screening Assay; type: biochemical
T2 construct: amino acids 786-1343 of the rat VEGF-R2 kinase domain; polyhistidine (N)
T2 sequence (O08775 786-1343): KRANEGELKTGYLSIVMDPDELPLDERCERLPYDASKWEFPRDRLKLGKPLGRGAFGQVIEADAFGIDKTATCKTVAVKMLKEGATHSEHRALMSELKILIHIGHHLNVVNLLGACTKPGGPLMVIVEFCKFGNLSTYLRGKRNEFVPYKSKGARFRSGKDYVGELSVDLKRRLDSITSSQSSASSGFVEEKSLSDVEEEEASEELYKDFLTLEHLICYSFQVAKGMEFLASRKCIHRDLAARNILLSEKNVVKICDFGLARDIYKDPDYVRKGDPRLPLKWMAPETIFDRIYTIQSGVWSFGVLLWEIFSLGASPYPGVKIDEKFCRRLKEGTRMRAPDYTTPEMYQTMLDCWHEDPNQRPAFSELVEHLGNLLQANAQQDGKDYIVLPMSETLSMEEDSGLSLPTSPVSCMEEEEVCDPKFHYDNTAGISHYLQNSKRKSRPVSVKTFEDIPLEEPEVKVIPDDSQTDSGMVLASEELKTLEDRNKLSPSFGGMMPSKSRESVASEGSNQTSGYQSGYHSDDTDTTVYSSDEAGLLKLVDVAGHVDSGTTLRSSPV

CDK1:Cyclin-B = target: T3, CDK1:Cyclin-B (Homo sapiens, UniProt P06493); assay: CDK1 Screening Assay; type: biochemical
T3 construct: purchased New England Biolabs, Beverly, Mass; 6020; host or cells: insect cells
T3 sequence (P06493 whole entry): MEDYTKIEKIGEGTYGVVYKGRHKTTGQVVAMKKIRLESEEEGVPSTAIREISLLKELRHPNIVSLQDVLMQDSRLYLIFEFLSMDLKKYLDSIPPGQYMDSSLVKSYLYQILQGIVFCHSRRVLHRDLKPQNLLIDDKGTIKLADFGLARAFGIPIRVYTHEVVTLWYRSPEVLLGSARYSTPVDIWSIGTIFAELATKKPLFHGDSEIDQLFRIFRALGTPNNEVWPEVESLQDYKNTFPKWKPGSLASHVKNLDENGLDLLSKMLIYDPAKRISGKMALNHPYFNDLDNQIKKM
T3 sequence (P14635 whole entry partner): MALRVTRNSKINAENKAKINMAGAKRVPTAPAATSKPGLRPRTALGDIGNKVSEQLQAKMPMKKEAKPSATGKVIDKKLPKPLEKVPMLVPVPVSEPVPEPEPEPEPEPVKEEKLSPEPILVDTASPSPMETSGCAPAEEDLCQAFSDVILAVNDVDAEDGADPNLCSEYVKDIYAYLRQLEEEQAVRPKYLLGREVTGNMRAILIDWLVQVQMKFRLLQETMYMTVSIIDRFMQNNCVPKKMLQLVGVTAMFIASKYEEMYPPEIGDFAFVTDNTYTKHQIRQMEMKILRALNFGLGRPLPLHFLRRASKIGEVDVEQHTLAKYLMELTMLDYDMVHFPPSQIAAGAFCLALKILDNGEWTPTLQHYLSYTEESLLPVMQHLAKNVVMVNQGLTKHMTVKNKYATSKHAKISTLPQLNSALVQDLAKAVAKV
Description: as §1, §2
The CDK1 used was isolated from insect cells expressing both the human CDK1 catalytic subunit and its positive regulatory subunit cyclin B (New England Biolabs, Beverly, Mass., Cat. #6020).

[2] = system: HeLa cervical adenocarcinoma; assay: Inhibition of in vitro cell proliferation (HeLa); type: cell-based, human; conditions: Homo sapiens, 14C-thymidine incorporation;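 note: cells exposed to compound for 24 h, then labelled 24 h with methyl 14C-thymidine, with uptake into DNA counted by scintillation against DMSO-only control wells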
A375 malignant melanoma = assay: Inhibition of in vitro cell proliferation (A375); type: cell-based, human; conditions: Homo sapiens, A-375, 14C-thymidine incorporation;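 note: cells plated for 24 h, given compound for 24 h, then labelled with 14C-thymidine for another 24 h, with DMSO-only wells as control and counts read by scintillation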
murine Aurora-A = target: T4, murine Aurora-A (Mus musculus, UniProt P97477); assay: Aurora-A Screening Assay; type: biochemical
T4 construct: replaced with the full length protein encoding the murine Aurora-A; made in house; host or cells: sf9 insect cells
T4 sequence (P97477 1-395): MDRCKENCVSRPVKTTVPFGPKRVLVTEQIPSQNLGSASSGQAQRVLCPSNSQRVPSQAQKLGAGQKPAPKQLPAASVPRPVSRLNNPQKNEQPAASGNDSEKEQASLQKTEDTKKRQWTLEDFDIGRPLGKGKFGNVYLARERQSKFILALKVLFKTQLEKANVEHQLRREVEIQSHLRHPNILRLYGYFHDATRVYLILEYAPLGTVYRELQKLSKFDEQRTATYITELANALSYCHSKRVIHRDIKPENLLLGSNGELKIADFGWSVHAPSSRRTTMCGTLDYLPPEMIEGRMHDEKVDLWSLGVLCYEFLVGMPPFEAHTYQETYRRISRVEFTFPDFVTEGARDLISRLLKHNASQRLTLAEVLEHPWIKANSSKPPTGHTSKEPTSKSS
Description: as §1, §2
The Aurora-A kinase assay was carried out using the CDK kinase assay procedure except that the enzyme was replaced with the full length protein encoding the murine Aurora-A (Accession #GB BC014711) expressed and purified from sf9 insect cells.

[3] = > means no observed 50% inhibition at the indicated test concentration, ~ means approximately 50% inhibition at that concentration, read-out: IC50 VEGF-R2

Row | Compound | IC50 (HCT-116 colon carcinoma) [µM] | IC50 (HER2 cytoplasmic domain) [µM] | IC50 [1, 3] [µM] | IC50 (CDK1:Cyclin-B) [µM] | IC50 [2] [µM] | IC50 (A375 malignant melanoma) [µM] | IC50 (murine Aurora-A) [µM] | IC50 ([1]; IC50 VEGF-R2) [µM]
1 | Cc1cc2c(F)c(Oc3ncnc(N)c3C=NOCCCCN3CCCC3)ccc2[nH]1 [Cpd 25, 4-amino-6-(4-fluoro-2-methyl-1H-indol-5-yloxy)-pyrimidine-5-carbaldehyde O-(4-pyrrolidin-1-yl-butyl)-oxime] | 0.1 | 0.596 | 0.13 | > 100 | > 100 | > 100 | > 10 | –
2 | Cc1cc2c(F)c(Oc3ncnc(N)c3C=NOCCCCN3CCOCC3)ccc2[nH]1 [Cpd 26, 4-amino-6-(4-fluoro-2-methyl-1H-indol-5-yloxy)-pyrimidine-5-carbaldehyde O-(4-morpholin-4-yl-butyl)-oxime] | > 1 | 1.02 | 0.048 | > 100 | > 100 | > 100 | > 100 | –
3 | Cc1cc2c(F)c(Oc3ncnc(N)c3C=NOCC3CC3)ccc2[nH]1 [Cpd 32, 4-amino-6-(4-fluoro-2-methyl-1H-indol-5-yloxy)-pyrimidine-5-carbaldehyde O-cyclopropylmethyl-oxime] | 0.333 | > 100 | 0.046 | > 100 | 0.324 | 0.07 | > 100 | –
4 | Cc1cc2c(F)c(Oc3ncnc(N)c3C=NOCCCCO)ccc2[nH]1 [Cpd 38, 4-amino-6-(4-fluoro-2-methyl-1H-indol-5-yloxy)-pyrimidine-5-carbaldehyde O-(4-hydroxy-butyl)-oxime] | 2.34 | 0.868 | 0.0577 | > 100 | 1.83 | 0.618 | > 100 | –
5 | CON=Cc1c(N)ncnc1Oc1ccc2c(c1)cc(C)n2C(=O)NCCO [Cpd 39, 5-[6-amino-5-(methoxyimino-methyl)-pyrimidin-4-yloxy]-2-methyl-indole-1-carboxylic acid (2-hydroxy-ethyl)-amide] | 3.43 | > 10 | 0.108 | > 100 | 4.37 | 3.77 | > 100 | –
6 | CON=Cc1c(N)ncnc1Oc1ccc2c(c1)cc(C)n2C(=O)NCCCO [Cpd 40, 5-[6-amino-5-(methoxyimino-methyl)-pyrimidin-4-yloxy]-2-methyl-indole-1-carboxylic acid (3-hydroxy-propyl)-amide] | 4.54 | > 10 | 0.0304 | 28 | 4.24 | 2.59 | > 100 | –
7 | CON=Cc1c(N)ncnc1Oc1ccc2c(c1)cc(C)n2C(=O)NCCCCN1CCCC1 [Cpd 42, 5-[6-amino-5-(methoxyimino-methyl)-pyrimidin-4-yloxy]-2-methyl-indole-1-carboxylic acid (4-pyrrolidin-1-yl-butyl)-amide] | > 10 | > 10 | 0.0542 | > 100 | > 10 | > 1 | > 100 | –
8 | CON=Cc1c(N)ncnc1Oc1ccc2c(c1)cc(C)n2C(=O)NCc1ccccc1 [Cpd 47, 5-[6-amino-5-(methoxyimino-methyl)-pyrimidin-4-yloxy]-2-methyl-indole-1-carboxylic acid benzylamide] | > 10 | > 100 | > 100 | > 100 | > 10 | > 10 | > 100 | –
9 | CCCNC(=O)n1c(C)cc2cc(Oc3ncnc(N)c3C=NOC)ccc21 [Cpd 48, 5-[6-amino-5-(methoxyimino-methyl)-pyrimidin-4-yloxy]-2-methyl-indole-1-carboxylic acid propylamide] | 1.22 | > 10 | 0.0076 | > 100 | 3.37 | 1.15 | > 100 | –
10 | CCCNC(=O)Nc1ccc(Oc2ncnc(N)c2C=NOC)cc1Cl [Cpd 52, 1-{4-[6-amino-5-(methoxyimino-methyl)-pyrimidin-4-yloxy]-2-chloro-phenyl}-3-propyl-urea] | > 1 | > 100 | – | > 100 | > 1 | > 1 | > 100 | 0.0275
11 | C=CCNC(=O)Nc1ccc(Oc2ncnc(N)c2C=NOC)cc1Cl [Cpd 53, 1-allyl-3-{4-[6-amino-5-(methoxyimino-methyl)-pyrimidin-4-yloxy]-2-chloro-phenyl}-urea] | > 1 | > 10 | 0.0191 | > 100 | > 1 | > 1 | > 100 | –
12 | CON=Cc1c(N)ncnc1Oc1ccc(NC(=O)Nc2ccccc2)c(Cl)c1 [Cpd 54, 1-{4-[6-amino-5-(methoxyimino-methyl)-pyrimidin-4-yloxy]-2-chloro-phenyl}-3-phenyl-urea] | > 100 | > 100 | 0.003 | > 100 | > 100 | > 100 | > 100 | –
13 | CON=Cc1c(N)ncnc1Oc1ccc(NC(=O)Nc2ccccc2Cl)c(Cl)c1 [Cpd 55, 1-{4-[6-amino-5-(methoxyimino-methyl)-pyrimidin-4-yloxy]-2-chloro-phenyl}-3-(2-chloro-phenyl)-urea] | > 10 | 1.82 | 0.0026 | > 100 | > 10 | > 10 | > 10 | –
14 | CON=Cc1c(N)ncnc1Oc1ccc(NC(=O)Nc2ccccc2F)c(Cl)c1 [Cpd 56, 1-{4-[6-amino-5-(methoxyimino-methyl)-pyrimidin-4-yloxy]-2-chloro-phenyl}-3-(2-fluoro-phenyl)-urea] | > 10 | > 10 | – | > 100 | > 10 | > 10 | > 100 | 0.0033
15 | CON=Cc1c(N)ncnc1Oc1ccc(NC(=O)Nc2cccc(F)c2)c(Cl)c1 [Cpd 57, 1-{4-[6-amino-5-(methoxyimino-methyl)-pyrimidin-4-yloxy]-2-chloro-phenyl}-3-(3-fluoro-phenyl)-urea] | > 10 | > 10 | 0.0017 | > 100 | > 10 | > 10 | > 100 | –
16 | CON=Cc1c(N)ncnc1Oc1ccc(NC(=O)Nc2ccccc2OC)c(Cl)c1 [Cpd 58, 1-{4-[6-amino-5-(methoxyimino-methyl)-pyrimidin-4-yloxy]-2-chloro-phenyl}-3-(2-methoxy-phenyl)-urea] | 8.19 | 1.7 | 0.0025 | > 100 | 11.9 | 5.06 | > 100 | –
17 | CON=Cc1c(N)ncnc1Oc1ccc(NC(=O)Nc2cccc(Cl)c2)c(Cl)c1 [Cpd 59, 1-{4-[6-amino-5-(methoxyimino-methyl)-pyrimidin-4-yloxy]-2-chloro-phenyl}-3-(3-chloro-phenyl)-urea] | > 10 | > 1 | 0.003 | > 100 | > 10 | > 10 | > 100 | –
18 | CON=Cc1c(N)ncnc1Oc1ccc(NC(=O)Nc2ccc(F)cc2)c(Cl)c1 [Cpd 60, 1-{4-[6-amino-5-(methoxyimino-methyl)-pyrimidin-4-yloxy]-2-chloro-phenyl}-3-(4-fluoro-phenyl)-urea] | > 10 | > 100 | 0.0028 | > 100 | > 10 | > 10 | > 10 | –

From US8013153B2, “Substituted pyrimidine kinase inhibitors” (Janssen Pharmaceutica, N.V., priority 2006, dated 2011)
